Our source for the IC50 values is patent publication US20250230153A1, “2,3-DIHYDROBENZO[B][1,4]DIOXIN-6-YL CONTAINING COMPOUNDS USEFUL AS IMMUNOMODULATORS” (BRISTOL-MYERS SQUIBB COMPANY, priority 2021, published 2025).

In the assay the target is PD-1/PD-L1 (Homo sapiens (Human), UniProt Q9NZQ7). Nature of the assay: PD-1/PD-L1 Homogenous Time-Resolved Fluorescence (HTRF) binding assay. The note with it: PD-1-Ig (20 nM final)/PD-L1-His (10 nM final) binding assay. An excerpt:
The ability of the compounds of the invention to bind to PD-L1 was investigated using a PD-1/PD-L1 Homogenous Time-Resolved Fluorescence (HTRF) binding assay.
The interaction of PD-1 and PD-L1 can be assessed using soluble, purified preparations of the extracellular domains of the two proteins. The PD-1 and PD-L1 protein extracellular domains were expressed as fusion proteins with detection tags, for PD-1, the tag was the Fc portion of Immunoglobulin (PD-1-Ig) and for PD-L1 it was the 6 histidine motif (PD-L1-His). All binding studies were performed in an HTRF assay buffer consisting of dPBS supplemented with 0.1% […] bovine serum albumin and 0.05% (v/v) Tween-20. For the h/PD-L1-His binding assay, inhibitors were pre-incubated with PD-L1-His (10 nM final) for 15m in 4 μl of assay buffer, followed by addition of PD-1-Ig (20 nM final) in 1 μl of assay buffer and further incubation for 15 m. HTRF detection was achieved using europium crypate-labeled anti-Ig (1 nM final) and allophycocyanin (APC) labeled anti-His (20 nM final). Antibodies were diluted in HTRF detection buffer and 5 μl was dispensed on top of the binding reaction. The reaction mixture was allowed to equilibrate for 30 minutes and the resulting signal (665 nm/620 nm ratio) was obtained using an EnVision fluorometer. Additional binding assays were established between the human proteins PD-1-Ig/PD-L2-His (20 & 5 nM, respectively) and CD80-His/PD-L1-Ig (100 & 10 nM, respectively).
Recombinant Proteins: Human PD-1 (25-167) with a C-terminal human Fc domain of immunoglobulin G (Ig) epitope tag [hPD-1 (25-167)-3S-IG] and human PD-L1 (18-239) with a C-terminal His epitope tag [hPD-L1(18-239)-TVMV-His] were expressed in HEK293T cells and purified sequentially by ProteinA affinity chromatography and size exclusion chromatography. Human PD-L2-His and CD80-His was obtained through commercial sources.
Homogenous Time-Resolved Fluorescence (HTRF) Assays of Binding of Soluble PD-1 to Soluble PD-L1. Soluble PD-1 and soluble PD-L1 refers to proteins with carboxyl-end truncations that remove the transmembrane-spanning regions and are fused to heterologous sequences, specifically the Fc portion of the human immunoglobuling G sequence (Ig) or the hexahistidine epitope tag (His). All binding studies were performed in an HTRF assay buffer consisting of dPBS supplemented with 0.1% (w/v) bovine serum albumin and 0.05% (v/v) Tween-20. For the PD-1-Ig/PD-L1-His binding assay, inhibitors were pre-incubated with PD-L1-His (10 nM final) for 15m in 4 μl of assay buffer, followed by addition of PD-1-Ig (20 nM final) in 1 μl of assay buffer and further incubation for 15 m. PD-L1 fusion proteins from either human, cynomologous macaques, mouse, or other species were used. HTRF detection was achieved using europium crypate-labeled anti-Ig monoclonal antibody (1 nM final) and allophycocyanin (APC) labeled anti-His monoclonal antibody (20 nM final). Antibodies were diluted in HTRF detection buffer and 5 μl was dispensed on top of binding reaction. The reaction was allowed to equilibrate for 30 minutes and signal (665 nm/620 nm ratio) was obtained using an EnVision fluorometer. Additional binding assays were established between PD-1-Ig/PD-L2-His (20 and 5 nM, respectively), CD80-His/PD-L1-Ig (100 and 10 nM, respectively) and CD80-His/CTLA4-Ig (10 and 5 nM, respectively).
Recombinant Proteins. Carboxyl-truncated human PD-1 (amino acids 25-167) with a C-terminal human Ig epitope tag [hPD-1 (25-167)-3S-IG] and human PD-L1 (amino acids 18-239) with a C-terminal His epitope tag [hPD-L1(19-239)-tobacco vein mottling virus protease cleavage site (TVMV)-His] were expressed in HEK293T cells and purified sequentially by recombinant Protein A affinity chromatography and size exclusion chromatography. Human PD-L2-His (Sino Biologicals), CD80-His (Sino Biologicals), CTLA4-Ig (RnD Systems) were all obtained through commercial sources.
On the technique in general: TR-FRET usually uses a lanthanide donor and a delayed reading to cut background.

PD-1/PD-L1, sequence (Q9NZQ7 18-239): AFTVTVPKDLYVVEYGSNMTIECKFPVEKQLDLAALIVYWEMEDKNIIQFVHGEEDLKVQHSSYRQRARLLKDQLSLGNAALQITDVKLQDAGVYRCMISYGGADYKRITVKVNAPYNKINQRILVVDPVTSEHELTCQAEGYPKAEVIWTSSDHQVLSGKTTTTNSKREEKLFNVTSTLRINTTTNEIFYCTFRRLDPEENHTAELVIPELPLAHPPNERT

In the case of `Cc1c(COc2cc(OCCCC(F)(F)F)c(CNC(C)(CO)CO)cc2Cl)cccc1-c1ccc2c(c1)OCCO2` [Example 1030, 2-((5-Chloro-4-((3-(2,3-dihydrobenzo[b][1,4]dioxin-6-yl)-2-methylbenzyl)oxy)-2-(4,4,4-trifluorobutoxy)benzyl)amino)-2-methylpropane-1,3-diol], the IC50 (usually the concentration that inhibits the measured activity by half) came to 6.5 nM.

Compound `Cc1c(COc2cc(OC[C@H](C)CO)c(CN3CCCC[C@H]3C(=O)O)cc2Cl)cccc1-c1ccc2c(c1)OCCO2` [Example 1031, (S)-1-(5-Chloro-4-((3-(2,3-dihydrobenzo[b][1,4]dioxin-6-yl)-2-methylbenzyl)oxy)-2-((R)-3-hydroxy-2-methylpropoxy)benzyl)piperidine-2-carboxylic acid] showed a half-inhibitory concentration (IC50) of 14.7 nM.

For the compound `Cc1c(COc2cc(OCC3CCC3)c(CNC(C)(CO)CO)cc2Cl)cccc1-c1ccc2c(c1)OCCO2` [Example 1049, 2-((5-Chloro-2-(cyclobutylmethoxy)-4-((3-(2,3-dihydrobenzo[b][1,4]dioxin-6-yl)-2-methylbenzyl)oxy)benzyl)amino)-2-methylpropane-1,3-diol], the IC50 came to 14.2 nM.

Consider `CCn1cc(COc2cc(OCc3cccc(-c4ccc5c(c4)OCCO5)c3C)c(Cl)cc2CN[C@H](CO)C(=O)O)cn1` [Example 1005, (R)-2-((5-Chloro-4-((3-(2,3-dihydrobenzo[b][1,4]dioxin-6-yl)-2-methylbenzyl)oxy)-2-((1-ethyl-1H-pyrazol-4-yl)methoxy)benzyl)amino)-3-hydroxypropanoic acid], for which the IC50 was 7.9 nM.

On to `Cc1c(COc2cc(OCCN3CC[C@@H](O)C3)c(CN[C@](C)(CO)C(=O)O)cc2Cl)cccc1-c1ccc2c(c1)OCCO2` [Example 1022, (R)-2-((5-Chloro-4-((3-(2,3-dihydrobenzo[b][1,4]dioxin-6-yl)-2-methylbenzyl)oxy)-2-(2-((R)-3-hydroxypyrrolidin-1-yl)ethoxy)benzyl)amino)-3-hydroxy-2-methylpropanoic acid], for which the IC50 was determined as 2.7 nM.

`Cc1c(COc2cc(OCCN3CCOCC3)c(CNC(C)(CO)CO)cc2Cl)cccc1-c1ccc2c(c1)OCCO2` [Example 1039, 2-((5-Chloro-4-((3-(2,3-dihydrobenzo[b][1,4]dioxin-6-yl)-2-methylbenzyl)oxy)-2-(2-morpholinoethoxy)benzyl)amino)-2-methylpropane-1,3-diol] gave an IC50 of 2.3 nM.

The compound `Cc1c(COc2cc(OCc3cccc(-c4nc(CC(=O)O)co4)c3)c(CN[C@@](C)(CO)C(=O)O)cc2Cl)cccc1-c1ccc2c(c1)OCCO2` [Example 1015, (S)-2-((2-((3-(4-(Carboxymethyl)oxazol-2-yl)benzyl)oxy)-5-chloro-4-((3-(2,3-dihydrobenzo[b][1,4]dioxin-6-yl)-2-methylbenzyl)oxy)benzyl)amino)-3-hydroxy-2-methylpropanoic acid] came in with a 50% inhibitory concentration (IC50) of 68.4 nM.

For `Cc1c(COc2cc(OCCN3CCCC(O)(C(F)(F)F)C3)c(CN3CCCC[C@H]3C(=O)O)cc2Cl)cccc1-c1ccc2c(c1)OCCO2` (stereo partly drawn) [Example 1058, (2S)-1-(5-Chloro-4-((3-(2,3-dihydrobenzo[b][1,4]dioxin-6-yl)-2-methylbenzyl)oxy)-2-(2-(3-hydroxy-3-(trifluoromethyl)piperidin-1-yl)ethoxy)benzyl)piperidine-2-carboxylic acid], the IC50 stood at 21.8 nM.

`COC(=O)CCSc1cncc(COc2cc(OCc3cccc(-c4ccc5c(c4)OCCO5)c3C)c(Cl)cc2CN2CCCC[C@H]2C(=O)O)c1` [Example 1007, (S)-1-(5-Chloro-4-((3-(2,3-dihydrobenzo[b][1,4]dioxin-6-yl)-2-methylbenzyl)oxy)-2-((5-((3-methoxy-3-oxopropyl)thio)pyridin-3-yl)methoxy)benzyl)piperidine-2-carboxylic acid] came in with an IC50 of 27.6 nM.

In turn, `COC(=O)C1(O)CCN(CCOc2cc(OCc3cccc(-c4ccc5c(c4)OCCO5)c3C)c(Cl)cc2CN[C@](C)(CO)C(=O)O)CC1` [Example 1052, (R)-2-((5-Chloro-4-((3-(2,3-dihydrobenzo[b][1,4]dioxin-6-yl)-2-methylbenzyl)oxy)-2-(2-(4-hydroxy-4-(methoxycarbonyl)piperidin-1-yl)ethoxy)benzyl)amino)-3-hydroxy-2-methylpropanoic acid] came in with a 50% inhibitory concentration (IC50) of 1.3 nM.

Compound `Cc1cnc(COc2cc(OCc3cccc(-c4ccc5c(c4)OCCO5)c3C)c(Cl)cc2CN[C@@](C)(CO)C(=O)O)cn1` [Example 1002, (S)-2-((5-Chloro-4-((3-(2,3-dihydrobenzo[b][1,4]dioxin-6-yl)-2-methylbenzyl)oxy)-2-((5-methylpyrazin-2-yl)methoxy)benzyl)amino)-3-hydroxy-2-methylpropanoic acid] yielded a half-maximal inhibitory concentration (IC50) of 6.8 nM.

Compound `Cc1c(COc2cc(OCCN3CCC(O)(C(=O)O)CC3)c(CNC(C)(CO)CO)cc2Cl)cccc1-c1ccc2c(c1)OCCO2` [Example 1056, 1-(2-(4-Chloro-5-((3-(2,3-dihydrobenzo[b][1,4]dioxin-6-yl)-2-methylbenzyl)oxy)-2-(((1,3-dihydroxy-2-methylpropan-2-yl)amino)methyl)phenoxy)ethyl)-4-hydroxypiperidine-4-carboxylic acid] returned an IC50 of 0.6 nM.

In the case of `Cc1c(COc2cc(OCC3CCOCC3)c(CN[C@](C)(CO)C(=O)O)cc2Cl)cccc1-c1ccc2c(c1)OCCO2` [Example 1045, (R)-2-((5-Chloro-4-((3-(2,3-dihydrobenzo[b][1,4]dioxin-6-yl)-2-methylbenzyl)oxy)-2-((tetrahydro-2H-pyran-4-yl)methoxy)benzyl)amino)-3-hydroxy-2-methylpropanoic acid], the 50% inhibitory concentration (IC50) is 4.4 nM.

The compound `Cc1c(COc2cc(OC[C@@H](C)CO)c(CN[C@](C)(CO)C(=O)O)cc2Cl)cccc1-c1ccc2c(c1)OCCO2` [Example 1035, (R)-2-((5-chloro-4-((3-(2,3-dihydrobenzo[b][1,4]dioxin-6-yl)-2-methylbenzyl)oxy)-2-((S)-3-hydroxy-2-methylpropoxy)benzyl)amino)-3-hydroxy-2-methylpropanoic acid] returned an IC50 of 3.4 nM.

For `Cc1c(COc2cc(OCCCN(C)C)c(CN[C@@H](CO)C(=O)O)cc2Cl)cccc1-c1ccc2c(c1)OCCO2` [Example 2002, (S)-2-((5-chloro-4-((3-(2,3-dihydrobenzo[b][1,4]dioxin-6-yl)-2-methylbenzyl)oxy)-2-(3-(dimethylamino)propoxy)benzyl)amino)-3-hydroxypropanoic acid], the IC50 stood at 6.5 nM.

The compound `Cc1c(COc2cc(OCC3CCCN(C)C3)c(CN[C@@](C)(CO)C(=O)O)cc2Cl)cccc1-c1ccc2c(c1)OCCO2` (stereo partly drawn) [Example 2003, (2S)-2-((5-chloro-4-((3-(2,3-dihydrobenzo[b][1,4]dioxin-6-yl)-2-methylbenzyl)oxy)-2-((1-methylpiperidin-3-yl)methoxy)benzyl)amino)-3-hydroxy-2-methylpropanoic acid] showed an IC50 of 6.5 nM.

In turn, `CCn1cc(COc2cc(OCc3cccc(-c4ccc5c(c4)OCCO5)c3C)c(Cl)cc2CN[C@@](C)(CO)C(=O)O)cn1` [Example 1003, (S)-2-((5-Chloro-4-((3-(2,3-dihydrobenzo[b][1,4]dioxin-6-yl)-2-methylbenzyl)oxy)-2-((1-ethyl-1H-pyrazol-4-yl)methoxy)benzyl)amino)-3-hydroxy-2-methylpropanoic acid] displayed an IC50 of 5.8 nM.
